Results: US20190390170A1, “METHODS FOR MODULATING PRODUCTION PROFILES OF RECOMBINANT PROTEINS” (ARES TRADING S.A., priority 2016, published 2019)

Tests used:
[1] = tested on: CHO-S cells expressing a fusion protein P1; test: Fed-batch culture of P1 cells with valeric acid (viable cell density, viability, titer); type: cell-based, Chinese hamster
Procedure: Assays were performed with 2 CHO cell lines: • CHO-S cells expressing a fusion protein P1, herein “Cells P1” or “P1 cells”. “P1” is an IgG1 fusion protein, comprising one part directed against a membrane protein (IgG part) linked to a second part targeting a soluble immune protein. Its isoelectric point (pi) is about 6.3-7.0. • CHO-K1 cells expressing a monoclonal antibody P2, herein “Cells P2” or “P2 cells”. “P2” is a humanised monoclonal antibody directed against a receptor found on the cell membrane. Its isoelectric point (pi) is about 9.20-9.40. Cell expansion was performed in tubes in a medium suitable for cell expansion. Assays in fed-batch started after at least one week expansion. Cells expressing both P1 and P2 were inoculated at 0.2×10^6 viable cells per millilitre (mL). All assays were performed in fed-batch culture. The host cells were cultured in fed-batch system either in microplates (“Deep well plate”, “DWP”) or in Spin Tubes®, and incubated at 36.5° C., 90% relative humidity, 5% CO2 and 320 rpm shaking during 14 days. A stock solution of valeric acid was prepared in a standard production proprietary medium. The valeric acid concentration of this stock solution was 195 mM. The stock solution was used to supplement media to test different valeric acid concentrations from the beginning of the culture (day 0; tested concentrations: 1, 1.5 and 2 mM). The solution was also used like a feed to supplement the valeric acid to the culture at different time points during the fed-batch (day 3, 4, 5 or 7). When the solution was used like a feed, the target concentration in the culture was always 1.5 mM. Viable cell density and viability were measured with the Guava easyCyte® flow cytometer or with the ViCell. Antibody titres were measured with the fortéBIO Octet® or with Biacore C®.

[2] = tested on: CHO-K1 cells expressing a monoclonal antibody P2; test: Fed-batch culture of P2 cells with valeric acid (viable cell density, viability, titer); type: cell-based, Chinese hamster
Procedure: Assays were performed with 2 CHO cell lines: • CHO-S cells expressing a fusion protein P1, herein “Cells P1” or “P1 cells”. “P1” is an IgG1 fusion protein, comprising one part directed against a membrane protein (IgG part) linked to a second part targeting a soluble immune protein. Its isoelectric point (pi) is about 6.3-7.0. • CHO-K1 cells expressing a monoclonal antibody P2, herein “Cells P2” or “P2 cells”. “P2” is a humanised monoclonal antibody directed against a receptor found on the cell membrane. Its isoelectric point (pi) is about 9.20-9.40. Cell expansion was performed in tubes in a medium suitable for cell expansion. Assays in fed-batch started after at least one week expansion. Cells expressing both P1 and P2 were inoculated at 0.2×10^6 viable cells per millilitre (mL). All assays were performed in fed-batch culture. The host cells were cultured in fed-batch system either in microplates (“Deep well plate”, “DWP”) or in Spin Tubes®, and incubated at 36.5° C., 90% relative humidity, 5% CO2 and 320 rpm shaking during 14 days. A stock solution of valeric acid was prepared in a standard production proprietary medium. The valeric acid concentration of this stock solution was 195 mM. The stock solution was used to supplement media to test different valeric acid concentrations from the beginning of the culture (day 0; tested concentrations: 1, 1.5 and 2 mM). The solution was also used like a feed to supplement the valeric acid to the culture at different time points during the fed-batch (day 3, 4, 5 or 7). When the solution was used like a feed, the target concentration in the culture was always 1.5 mM. Viable cell density and viability were measured with the Guava easyCyte® flow cytometer or with the ViCell. Antibody titres were measured with the fortéBIO Octet® or with Biacore C®. In this experiment the addition of 1.5 mM valeric acid to the culture on day 03, 04 or 05 was tested. For this experiment a CHO-k1 cell line (P2 cells) was used to confirm that valeric acid has the same effect than on CHO-S cells (P1 cells as discussed in a.).

[3] = valeric acid in media on day 0 (1, 1.5 and 2 mM)
[4] = 1.5 mM valeric acid added day 03, 04 or 05, until day 12

Structure (SMILES): CCCCC(=O)O [valeric acid]
- viability of the culture compared to control ([1]; 1.5 mM valeric acid added as feed (day 3, 5 or 7), as of day 12): prolonged compared to the control runs
- cell viability compared to control ([1]; 1.5 mM valeric acid added as feed (day 3, 5 or 7), until day 11): no impact on cell viability until day 11
- increase of titer compared to control ([1]; 1.5 mM valeric acid added as feed at day 3, titer at day 12): about 20%
- increase of titer compared to control ([1]; 1.5 mM valeric acid added as feed at day 5, titer at day 12): about 30%
- increase of titer compared to control ([1]; 1.5 mM valeric acid added as feed at day 7, titer at day 12): about 20%
- cell growth rate compared to control ([1]; 1.5 mM valeric acid added at day 3): slowed down
- final titer [1, 3]: not improved
- maximum viable cell density [1, 3]: The higher the concentration, the lower the maximum viable cell density
- viability [1, 3]: maintained longer than for control experiment
- impact on cell density and titer ([1]; valeric acid in the media on day 0): very negative impact on both cell density and titer
- viability compared to control culture ([2]; 1.5 mM valeric acid added day 03, 04 or 05, starting day 13): prolonged compared to the control culture
- cell viability compared to control [2, 4]: no impact on cell viability
- titer compared to control [2, 4]: comparable to control
- maximum viable cell density compared to control ([2]; 1.5 mM valeric acid added earlier during the culture (day 03, 04 or 05)): decreased
- titer increase compared to control ([2]; 1.5 mM valeric acid at day 3, titer at day 17): about 25%
- titer increase compared to control ([2]; 1.5 mM valeric acid at day 5, titer at day 17): about 35%
- titer increase compared to control ([2]; 1.5 mM valeric acid at day 7 (so in the source), titer at day 17): about 25%
- titer obtained ([2]; optimal valeric acid condition, after day 17 (data not shown), control 0.9 g/L): ~5 g/L
